Source: patent US6555533B2, “Use of certain substituted caprolactams in treating tumors” (Novartis AG, priority 1998, dated 2003)
Marks after values point to notes of the source that are not given here.

Key:
HCT-116 tumor xenografts = experiment: HCT-116 colon carcinoma xenograft model; format: in vivo, athymic (nu/nu) mice; conditions: 75 mg/kg i.v. 1 time per week (positive control)
Experimental: Positive controls are carried out with 5-fluorouracil administered 1 time per week i.v.

[1] = system: MDA-MB-435 tumor xenografts; experiment: MDA-MB-435 breast carcinoma xenograft model; format: in vivo, athymic (nu/nu) mice
Experimental: Positive controls are carried out with doxorubicin administered 3 times per week i.v.
The following results were obtained for compounds of Ex.1-Ex.12 tested against MDA-MB-435 tumor xenografts 3×/week for 3 weeks: […]

A549 tumor xenografts = system: A549 tumor xenografts
Text: Utilizing this model, one can measure the ability of test compounds to inhibit the growth of human tumor xenografts growing subcutaneously (s.c.) in athymic nude mice. The histologic tumor types employed were MDA-MB-435 breast, A549 non-small cell lung, HCT-116 colon and PC-3 prostate carcinomas.
A549 non-small cell lung carcinoma xenograft model: Briefly, 10 million cells were implanted s.c. into the right flank of athymic (nu/nu) mice, and were allowed to grow until a mass of approximately 120 mm^3 was established. The test compounds are administered three times per week intravenously (i.v.) for three weeks in 5% dextrose, 10%DMSO in water. The test compounds are administered in dose-response fashion in order to evaluate and document the full potential range of activity (efficacy and toxicity) for a given compound. Positive controls are carried out with mitomycin C administered 3 times per week intraperitioneally (i.p.).
Toxicity was monitored by recording average group body weights twice weekly, and by daily observation of general health. Efficacy was monitored by taking measurements of tumor length, width, and depth weekly using digital calipers coupled to automated data collectors. Mean tumor volume (MTV) at initiation of therapy was subtracted from final MTV in order to express the actual tumor growth during treatment (ΔMTV). Anti-tumor activity was expressed as %T/C (ΔMTV of treated group÷ΔMTV of control group×100). Regressions were calculated using the formula: (T/T0−1)×100%, where T is the tumor volume for the treatment group at the end of the experiment, and T0 is the tumor volume at the beginning of the experiment. Statistical significance was evaluated using a one-tailed Student's t-test (p<0.05).

PC-3 tumor xenografts = experiment: PC-3 prostate carcinoma xenograft model; format: in vivo, athymic (nu/nu) mice; conditions: 15 mg/kg i.v. daily for the first five days (positive control)
[2] = 10 μmol/kg i.v. 3×/week for 3 weeks
[3] = 33 μmol/kg i.v. 3×/week for 3 weeks
[4] = 2 mg/kg i.p. 3 times per week (positive control)

| Structure (SMILES) | % T/C [1, 2] | Dead/Total [1, 2] | % T/C [1, 3] | Dead/Total [1, 3] | other results |
| --- | --- | --- | --- | --- | --- |
| O=c1[nH]cc(F)c(=O)[nH]1 [5-fluorouracil, reference compound] | – | – | – | – | % T/C (HCT-116 tumor xenografts): 16* %; Dead/Total (HCT-116 tumor xenografts): 0/8; Δ MTV (HCT-116 tumor xenografts): 65 mm^3 |
| CO[C@@H](C(=O)N[C@H]1CC[C@@H](OC(=O)CC2CCCCC2)CNC1=O)[C@H](O)[C@@H](O)[C@H](O)/C=C/C(C)(C)C [Ex. 6, (2R, 3R, 4S, 5R, 6E)-3,4,5-Trihydroxy-2-methoxy-8,8-dimethyl-N-[(3S, 6R)-hexahydro-2-oxo-6-(cyclohexylmethylcarbonyl)oxy-2H-azepin-3-yl]non-6-enamide] | 47* % | 0/8 | 34* % | 0/8 | – |
| CO[C@@H](C(=O)N[C@H]1CC[C@@H](OC(=O)Cc2ccc(Cl)c(Cl)c2)CNC1=O)[C@H](O)[C@@H](O)[C@H](O)/C=C/C(C)(C)C [Ex. 8, (2R, 3R, 4S, 5R, 6E)-3,4,5-Trihydroxy-2-methoxy-8,8-dimethyl-N-[(3S, 6R)-hexahydro-2-oxo-6-(1-oxo-2-[3,4-dichlorophenyl]ethoxy)-2H-azepin-3-yl]non-6-enamide] | 62% | 0/8 | 67% | 0/8 | – |
| COc1ccc(CC(=O)O[C@@H]2CC[C@H](NC(=O)[C@H](OC)[C@H](O)[C@@H](O)[C@H](O)/C=C/C(C)(C)C)C(=O)NC2)cc1 [Ex. 9, (2R, 3R, 4S, 5R, 6E)-3,4,5-Trihydroxy-2-methoxy-8,8-dimethyl-N-[(3S, 6R)-hexahydro-2-oxo-6-(1-oxo-2-[4-methoxyphenyl]ethoxy)-2H-azepin-3-yl]non-6-enamide] | 76% | 0/8 | 48* % | 0/8 | – |
| CO[C@@H](C(=O)N[C@H]1CC[C@@H](OC(=O)/C=C/c2ccccc2)CNC1=O)[C@H](O)[C@@H](O)[C@H](O)/C=C/C(C)(C)C [Ex. 11, (2R, 3R, 4S, 5R, 6E)-3,4,5-Trihydroxy-2-methoxy-8,8-dimethyl-N-[(3S, 6R)-hexahydro-2-oxo-6-(1-oxo-3-phenyl-2-propenoxy)-2H-azepin-3-yl]non-6-enamide] | – | 0/8 | – | 0/8 | Δ MTV [1, 2]: 135 mm^3; Δ MTV [1, 3]: 76 mm^3 |
| CO[C@@]12[C@H](COC(N)=O)C3=C(C(=O)C(C)=C(N)C3=O)N1C[C@@H]1N[C@@H]12 [Mitomycin C, reference compound] | – | – | – | – | % T/C (A549 tumor xenografts; [4]): 20* %; Δ MTV (A549 tumor xenografts; [4]): 15 mm^3; Dead/Total (A549 tumor xenografts; mouse, in vivo): 0/8 |
| CC(=O)O[C@H]1C(=O)[C@@]2(C)[C@H]([C@H](OC(=O)c3ccccc3)[C@]3(O)C[C@H](OC(=O)[C@H](O)[C@@H](NC(=O)c4ccccc4)c4ccccc4)C(C)=C1C3(C)C)[C@]1(OC(C)=O)CO[C@@H]1C[C@@H]2O [Paclitaxel, reference compound] | – | – | – | – | % regression (PC-3 tumor xenografts): 100 regression* %; Dead/Total (PC-3 tumor xenografts): 3/8; Δ MTV (PC-3 tumor xenografts): −103 mm^3 |
